Tests used:
[1] = tested on: Dermatophagoides farinae (Der f)-induced AD-like skin inflammation; experiment: Der f-induced atopic dermatitis mouse model; assay type: in vivo, Balb/c mice
Procedure: Der f has been purchased from Greer Laboratories and a Der f solution has been prepared in 70% DMSO in MilliQ water. 375 μg of Der f has been applied during 7 weeks on the left ear of mice. Compounds to be tested were applied every day of the week except during the weekend, on the Der f treated ear from week 4 until day 44. • 1.2. Compounds • 1.2.1. MK3207 (CD10192/41) MK3207 (CD10192/41) has been provided by Galderma and 3% of MK3207 (CD10192/41) solutions in ethanol have been prepared. • 1.2.2. Triamcinolone Acetonide Triamcinolone acetonide has been chosen as positive control for the Der f model. 0.01% of triamcinolone acetonide solution in ethanol has been used. • 1.2.3. Ethanol Ethanol 100 has been chosen as a vehicle to solubilize the compounds. • 1.3. Mice Balb/c mice strain has been used for the study. These animals have been obtained from controlled breeding and were specific pathogen free. The animals have been provided by Janvier SAS, France. • 1.4. Protocol AD-like lesions have been induced by topical application of 375 μl of Der f solution on each side of the left ear for 7 weeks at day 1, day 8, day 15, day 22, day 29, day 36 and day 43. Mice have been treated from day 20 to day 43 five days by week with the different solutions administrated by the topical route. Measurement of ear swelling has been monitored 24 hours after each allergen application. After day 19, ear swelling has been daily measured before compound application. After mouse euthanasia, at Day 44 the left ear has been collected and has been washed in ethanol 70% and has been rinsed in PBS. Skin biopsies of the left ear, have then been collected for cytokines profile quantification with Luminex technique and for the quantification of the eosinophil peroxidase thanks to the ELISA method. Draining lymph nodes have been collected and cultivated a whole night restimulated or not with 0.5 mg/ml of Der f extract before quantifying the number of Der f specific lymphocytes T producing INFγ.

[2] = clinical development discontinued; cited from earlier work
[3] = tested on: imiquimod (Aldara) induced psoriasiform skin inflammation; experiment: Imiquimod induced psoriasiform mice model; assay type: in vivo, Balb/c mice; conditions: CD10192/41 at 2% topical twice daily, 2 h before and 6 h after Aldara
Procedure: Imiquimod psoriasiform model has been induced by daily topical application of Aldara (3.18 mg of imiquimod) for 3 or 7 days on the shaved back skin of Balb/c mice. The pharmacodynamic analysis were performed by using a transcriptional analysis at D4, a histological analysis at D4 and D8, a cells analysis at D8 and a Cytokines analysis at D8. • 1.2. Compounds • 1.2.1. Imiquimod
Imiquimod is sold under the name Aldara™ 5% by 3M-Pharmaceutical. 63.5 mg of Aldara cream is applied on the back skin of the mice, representing 3.2 mg of active compound. • 1.2.2. MK3207 (CD10192/41)
MK3207 compound is dissolved in PG/Ethanol 96 (30/70) and applied twice daily 2 h 00 before and 6 h 00 after Aldara treatment. • 1.2.3. Vehicles
PG/Ethanol (30/70) is used as a vehicle. • 1.2.4. Positive Control
CD0153F (Betamethasone valerate) at 0.01% (0.210 mM) in acetone by topical route is used as positive control. • 1.3. Mice
Balb/c mice strain has been used for the study. These animals have been obtained from controlled breeding and were specific pathogen free. The animals have been provided by Janvier SAS, France. • 1.4. Protocol […]
At day 4 skin biopsies were collected for quantifying gene expression of the inflammatory response via RT-PCR and for measuring epidermis thickness via histological stained slides (HE). […]

[4] = tested on: αCGRP-induced skin blood perfusion increase; experiment: CGRP-induced mice model of vasodilatation (Laser Doppler skin blood perfusion, right ear); assay type: in vivo, BALB/c mice; conditions: for decrease of the CGRP flush (AUC skin blood perfusion 0 to 15 min): topical, 90 min prior to αCGRP 20 μg/kg i.v.
Procedure: (§1) This study has been conducted on BALB/c mice, 5 mice per group have been used.
Body temperature was maintained at 35° C.-37° C. using an automated heating pad. Images were obtained from Laser Doppler perfusion imaging PIM3 (Perimed, France). For each mouse, the skin blood perfusion was evaluated every minute on the right ear. The laser beam of the PIM3 scanned a skin area of 2×2 cm. Prior to the treatment, 2 scans were performed.
The duration of the recording was 22 minutes in total.
The blood perfusion is mapped as colour coded images at intervals of 1 min. For each mouse ear, the area corresponding to the internal part of the ear is defined and adjusted for each image. From this selected area, we take the highest of the first two images as the background of blood perfusion (I ref). The background value is then subtracted from the next images of the kinetic.
The software calculates the erythematous surface (S) and the mean of the blood perfusion intensity (I) in this surface for the region of interest for all the images. […] For each time of kinetic, the relative area of blood perfusion is calculated as follow: Relative area of perfusion=(I/I ref)×S

[5] = Skin concentration two hours after single topical application on the mouse ear; assay type: in vivo, BALB/c mice; conditions: 0.003% to 3%
Description: as §1
At the end of the scan, blood is collected from the abdominal artery on anesthetized animals. The animals are then euthanatized and the treated ear collected and weighted. Plasma and ear are snapped frozen.

[6] = MK3207 3% topical, day 44, ear skin biopsies, Luminex

SMILES: O=C(CN1C(=O)C2(CCCC2)NC[C@H]1c1cc(F)cc(F)c1)Nc1ccc2c(c1)C[C@@]1(C2)C(=O)Nc2ncccc21 [MK3207, 2-[(8R)-8-(3,5-difluorophenyl)-10-oxo-6,9-diazaspiro[4.5]dec-9-yl]-N-[(2R)-2′-oxo-1,1′,2′,3-tetrahydrospiro[indene-2,3′-pyrrolo[2,3-b]pyridin]-5-yl]acetamide]
- eosinophil peroxidase production (EPX) ([1]; MK3207 3% topical, day 44, ear skin biopsies, ELISA): reduction
- production of IL17A [1, 6]: significantly reduced
- production of IL-4 [1, 6]: significantly reduced
- production of IL-5 [1, 6]: significantly reduced
- production of IL-13 [1, 6]: significantly reduced
- production of TNFα [1, 6]: significantly reduced
- production of IFNγ by lymphocyte T cells ([1]; draining lymph nodes restimulated with Der f, MK3207 3%, triamcinolone acetonide 0.01% topical): decrease
- ear swelling ([1]; topical MK3207, as soon as day 27 with a similar effect until day 43): decrease
- ear swelling / ear edema ([1]; topical in ethanol, MK3207 3% (day 44), triamcinolone acetonide 0.01%): decrease
- toxicity associated with oral use [2]: severe hepatotoxicity
- reduction of the epidermis thickness ([3]; day 4): 33%
- reduction of the number of IL17-production within the γδ T cells ([3]; day 8): 55%
- decrease of the CGRP flush (AUC skin blood perfusion 0 to 15 min) ([4]; MK3207 0.003% in ethanol, NS, p=0.2259): 31%
- decrease of the CGRP flush (AUC skin blood perfusion 0 to 15 min) ([4]; MK3207 0.03% in ethanol, NS, p=0.0567): 49%
- decrease of the CGRP flush (AUC skin blood perfusion 0 to 15 min) ([4]; MK3207 0.3% in ethanol, p=0.0112): 70%
- decrease of the CGRP flush (AUC skin blood perfusion 0 to 15 min) ([4]; MK3207 3% in ethanol, p=0.0083): 80%
- inhibition of αCGRP-induced increase in skin blood perfusion, dose dependence ([4]; topical 0.003% to 3%, 90 minutes prior to αCGRP, p=0.0017): inhibited this increase in a dose-dependent manner
- detection in skin samples [5]: detected in skin samples at all doses tested

SMILES: O=C(N[C@@H]1CC[C@@H](c2cccc(F)c2F)CN(CC(F)(F)F)C1=O)N1CCC(n2c(=O)[nH]c3ncccc32)CC1 [telcagepant, reference compound]
- toxicity associated with oral use [2]: severe hepatotoxicity

SMILES: NCCCC[C@H](NC(=O)[C@@H](Cc1cc(Br)c(O)c(Br)c1)NC(=O)N1CCC(N2Cc3ccccc3NC2=O)CC1)C(=O)N1CCN(c2ccncc2)CC1 [olcegepant, reference compound]
- toxicity associated with oral use [2]: severe hepatotoxicity

Source: patent US20180185360A1, “CGRP RECEPTOR ANTAGONIST COMPOUNDS FOR TOPICAL TREATMENT OF SKIN DISORDERS” (GALDERMA RESEARCH & DEVELOPMENT, priority 2015, published 2018)
